What was measured:
[1] = molecular target: T1, Human M4 (Homo sapiens, UniProt P08173); experiment: mAChR M4 cell-based functional assay (calcium flux, antagonism of EC80 acetylcholine response); settings: for remaining activity at 30 µM: % ACh maximum at 30 μM, human M4, read-out: Emin; for IC50: M4/Gqi5/CHO-K1 cells, decrease of response to EC80 acetylcholine
T1 construct: expressed in transfected cells; host or cells: CHO-K1 (Chinese hamster ovary) cells, stably co-transfected with Gqi5
T1 sequence (P08173 1-479): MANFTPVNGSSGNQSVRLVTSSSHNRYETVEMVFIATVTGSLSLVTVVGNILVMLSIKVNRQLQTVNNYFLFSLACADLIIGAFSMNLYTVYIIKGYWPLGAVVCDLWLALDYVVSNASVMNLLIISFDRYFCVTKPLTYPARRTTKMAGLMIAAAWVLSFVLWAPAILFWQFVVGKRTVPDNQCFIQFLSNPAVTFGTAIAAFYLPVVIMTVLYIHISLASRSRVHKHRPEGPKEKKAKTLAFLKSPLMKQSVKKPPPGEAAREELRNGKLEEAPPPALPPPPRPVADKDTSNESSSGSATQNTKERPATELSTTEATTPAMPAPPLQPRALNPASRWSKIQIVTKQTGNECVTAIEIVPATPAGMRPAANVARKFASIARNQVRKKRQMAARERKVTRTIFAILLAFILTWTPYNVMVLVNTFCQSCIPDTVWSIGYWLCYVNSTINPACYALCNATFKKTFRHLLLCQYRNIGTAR
Experimental: Human or rat M4 cDNA, along with the chimeric G protein Gqi5, were transfected into Chinese hamster ovary (CHO-K1) cells purchased from the American Type Culture Collection using Lipofectamine2000. M4/Gqi5/CHO cells were grown in Ham's F-12 medium containing 10% heat-inactivated fetal bovine serum (FBS), 20 mM HEPES, 500 μg/mL G418 sulfate, and 200 μg/mL Hygromycin B.
For high throughput measurement of agonist-evoked increases in intracellular calcium, CHO-K1 cells stably expressing muscarinic receptors were plated in growth medium lacking G418 and hygromycin at 15,000 cells/20 μL/well in Greiner 384-well black-walled, tissue culture (TC)-treated, clear-bottom plates (VWR). Cells were incubated overnight at 37° C. and 5% CO2. The next day, cells were washed using an ELX 405 (BioTek) with assay buffer; the final volume was then aspirated to 20 μL. Next, 20 μL of a 2.3 μM stock of Fluo-4/acetoxymethyl ester (Invitrogen, Carlsbad, Calif.), prepared as a 2.3 mM stock in DMSO and mixed in a 1:1 ratio with 10% (w/v) Pluronic F-127 and diluted in assay buffer, was added to the wells and the cell plates were incubated for 50 min at 37° C. and 5% CO2. Dye was removed by washing with the ELX 405 and the final volume was aspirated to 20 μL. Compound master plates were formatted in a 10 point concentration-response curve (CRC) format (1:3 dilutions) in 100% DMSO with a starting concentration of 10 or 1 mM using a BRAVO liquid handler (Agilent). Test compound CRCs were then transferred to daughter plates (240 nL) using the Echo acoustic plate reformatter (Labcyte, Sunnyvale, Calif.) and then diluted into assay buffer (40 μL) to a 2× stock using a Thermo Fisher Combi (Thermo Fisher Scientific, Waltham, Mass.).
Calcium flux was measured using the Functional Drug Screening System (FDSS) 6000 or 7000 (Hamamatsu Corporation, Tokyo, Japan) as an increase in the fluorescent static ratio. Compounds were applied to cells (20 μL, 2×) using the automated system of the FDSS at 2 seconds into the protocol and the data were collected at 1 Hz. At 143 s, 10 μL of an EC20 concentration of the muscarinic receptor agonist acetylcholine was added (5×), followed by the addition of 12 μL of an EC80 concentration of acetylcholine at the 268 s time point (5×). Agonist activity was analyzed as a concentration-dependent increase in calcium mobilization upon compound addition. Positive allosteric modulator activity was analyzed as a concentration-dependent increase in the EC20 acetylcholine response. Antagonist activity was analyzed as a concentration-dependent decrease in the EC80 acetylcholine response; for the purposes of the tables herein, an IC50 (inhibitory concentration 50) was calculated as a concentration-dependent decrease of the response elicited by an EC80 concentration of acetylcholine. Concentration-response curves were generated using a four-parameter logistical equation in XLFit curve fitting software (IDBS, Bridgewater, N.J.) for Excel (Microsoft, Redmond, Wash.) or Prism (GraphPad Software, Inc., San Diego, Calif.) or the Dotmatics software platform (Dotmatics, Bishop's Stortford, UK).
Compounds were synthesized as described above. Activity (IC50 and Emin) was determined in the mAChR M4 cell-based functional assay as described above and the data are shown in Table 5. The compound numbers correspond to the compound numbers used in Examples 1-4 and Tables 1-4.

[2] = system: mice; experiment: haloperidol-induced catalepsy, a model of parkinsonian motor disability; format: in vivo
Source text: Furthermore, haloperidol-induced catalepsy, a model of parkinsonian motor disability, is reduced in M4 knockout mice as compared to wild-type controls. […] The reversal by scopolamine was uncommonly robust and more pronounced than we observe with agents targeting a number of other targets being evaluated for potential antiparkinsonian effects, including metabotropic glutamate (mGlu) receptors mGlu4 or mGlu5, A2A adenosine receptors, and NMDA receptors. […] Taken together with the extensive studies of M4 modulation of basal ganglia and motor function, these studies provide compelling evidence that M4 is the dominant mAChR subtype involved in the antiparkinsonian effects of non-selective mAChR antagonists and provide support for discovery and development of selective M4 antagonists for treatment of neurodegenerative disease such as PD, dystonia, tardive dyskinesia and other movement disorders.

[3] = system: M4 knockout mice; settings: but not the other four mAChR subtypes (M1-3,5); cited from earlier work

| remaining activity at 30 µM [1] [%] | IC50 [1] [nM] | Compound | reducing catalepsy induced by haloperidol ([2]; M4 KO mice) | reversal of catalepsy induced by haloperidol ([2]; WT mice) | locomotor-activating effects [3] |
| --- | --- | --- | --- | --- | --- |
| 5.19 | 55 | Cc1cnn(C)c1-c1ccc(NCC2CCC3CN(CC4CC5C=CC4C5)CC23)nn1 (stereo not drawn) [Compound 21, N-[[2-(5-bicyclo[2.2.1]hept-2-enylmethyl)-3,3a,4,5,6,6a-hexahydro-1H-cyclopenta[c]pyrrol-4-yl]methyl]-6-(2,4-dimethylpyrazol-3-yl)pyridazin-3-amine] | – | – | – |
| 22.6 | > 10000 | Cc1cnn(C)c1-c1ccc(NCC2CCC3CN(CC4CCCOC4)CC23)nn1 (stereo not drawn) [Compound 24, 6-(2,4-dimethylpyrazol-3-yl)-N-[[2-(tetrahydropyran-3-ylmethyl)-3,3a,4,5,6,6a-hexahydro-1H-cyclopenta[c]pyrrol-4-yl]methyl]pyridazin-3-amine] | – | – | – |
| 27.8 | > 10000 | Cc1cnn(C)c1-c1ccc(NCC2CCC3CN(CC4CCOCC4)CC23)nn1 (stereo not drawn) [Compound 25, 6-(2,4-dimethylpyrazol-3-yl)-N-[[2-(tetrahydropyran-4-ylmethyl)-3,3a,4,5,6,6a-hexahydro-1H-cyclopenta[c]pyrrol-4-yl]methyl]pyridazin-3-amine] | – | – | – |
| 16.1 | > 10000 | Cc1cnn(C)c1-c1ccc(NCC2CCC3CN(Cc4ccccc4)CC23)nn1 (stereo not drawn) [Compound 26, N-[(2-benzyl-3,3a,4,5,6,6a-hexahydro-1H-cyclopenta[c]pyrrol-4-yl)methyl]-6-(2,4-dimethylpyrazol-3-yl)pyridazin-3-amine] | – | – | – |

The remaining lines, values behind:

| Compound | remaining activity at 30 µM [1] [%] | IC50 [1] [nM] | reducing catalepsy induced by haloperidol ([2]; M4 KO mice) | reversal of catalepsy induced by haloperidol ([2]; WT mice) | locomotor-activating effects [3] |
| --- | --- | --- | --- | --- | --- |
| Cc1cccnc1CN1CC2CCC(CNc3ccc(-c4c(C)cnn4C)nn3)C2C1 (stereo not drawn) [Compound 22, 6-(2,4-dimethylpyrazol-3-yl)-N-[[2-[(3-methyl-2-pyridyl)methyl]-3,3a,4,5,6,6a-hexahydro-1H-cyclopenta[c]pyrrol-4-yl]methyl]pyridazin-3-amine] | 10.8 | 1500 | – | – | – |
| Cc1cnn(C)c1-c1ccc(NCC2CCC3CN(CCc4ccccc4)CC23)nn1 (stereo not drawn) [Compound 23, 6-(2,4-dimethylpyrazol-3-yl)-N-[[2-(2-phenylethyl)-3,3a,4,5,6,6a-hexahydro-1H-cyclopenta[c]pyrrol-4-yl]methyl]pyridazin-3-amine] | 5.96 | 766 | – | – | – |
| CN1[C@@H]2C[C@@H](OC(=O)[C@H](CO)c3ccccc3)C[C@H]1[C@@H]1O[C@@H]12 [scopolamine] | – | – | ineffective | completely reversed | dramatically reduced |

— US11352344B2, “Antagonists of the muscarinic acetylcholine receptor M4” (Vanderbilt University, priority 2017, dated 2022)
